{"source": "patent US20140107344A1", "about": "“ZINC SALT OF ISOTHIAZOLONE COMPOUND, METHOD FOR REDUCING IRRITATION CAUSED BY ISOTHIAZOLONE COMPOUND, ANTIBACTERIAL AND ANTIFUNGAL METHOD USING ZINC SALT OF ISOTHIAZOLONE COMPOUND, AND ANTIBACTERIAL AND ANTIFUNGAL COMPOSITION” (Nippon Soda Co., Ltd., priority 2007, published 2014)", "key": {"[1]": {"test_system": "Escherichia coli NBRC 3972", "test": "Antibacterial test using a coated film (JIS Z 2801), Escherichia coli", "assay_type": "cell-based", "experimental": "(§1) Regarding the BIT/Zn salt obtained in Example 1, an antibacterial test was carried out using a coated film.\n(§2) For the samples, 2 types of samples were used; i.e., A) the BIT/Zn salt (in the form of a powder containing 79.7% of active ingredients) and B) a BIT material/SC formulation (i.e., Bestcide-NS manufactured by Nippon Soda Co., Ltd. containing 15.0% of active ingredients). For the coating material, an aqueous acrylic emulsion coating material manufactured by Nippe Home Products Co., Ltd. (a preservative-free product) was used.\n(§3) (1) Preparation of Test Specimen\n(§4) To a blank coating material, either A) 0.019% by weight of the BIT/Zn salt or B) 0.1% by weight of the BIT technical product/SC formulation was added, and the resultant was then stirred and mixed. The coating material to which the BIT/Zn salt was added was further subjected to an ultrasonic treatment to prepare a uniform dispersion.\n(§5) Subsequently, the obtained drug-added coating materials were applied onto both sides ([…] for each side) of a sterilized filter paper having a size of 50×50 mm, and the resultant was cured at room temperature for 24 hours. Test specimens where no drug was added were also prepared in the same manner.\n(§6) The test was carried out in accordance with JIS Z 2801. In other words, two strains of bacteria were used for the test; i.e., Escherichia coli NBRC 3972 (Escherichia coli) and Staphylococcus aureus NBRC 12732 (Staphylococcus aureus), and their cultures preincubated in an NA medium were diluted with a 500-fold diluted NB liquid medium to prepare bacterial suspensions for inoculation. 0.4 ml of the bacterial suspension was inoculated onto each test specimen (i.e., 50×50 mm sized filter paper with a coated film thereon), and the resultant was covered with a covering film (which was already sterilized and having a size of 45×45 mm). The prepared test specimen was put in a petri dish and incubated for 24 hours in a thermo-hygrostat at a temperature of 35±1° C. and a relative humidity of 95%. Thereafter, the sample surface and the covering film were washed using 10 ml of an SCDLP medium, and the number of bacterial cells per 1 ml of the washed out liquid was calculated by counting the number of colonies using an NA medium.\nA coated film obtained using a blank coating material was used as a control.\nThe number of bacterial cells was observed, just after the inoculation (A), and after 24 hours of incubation (B).\n2) Requirements for a Valid Test\n1. {(A−B)/A}×100≦90 [A: just after the inoculation, B: after 24 hours of incubation]\n2. Results of the viable cell count obtained in (A) were within a range from 1.0 to 5.0×10^5 cells per petri dish.\n3. Results of the viable cell count obtained in the blank (untreated) were 1.0×10^3 or more cells per petri dish. […]"}, "ear auricle of a mouse": {"test_system": "ear auricle of a mouse", "test": "Local lymph node proliferation assay using a mouse (ear auricle irritation)", "assay_type": "in vivo", "settings": "for Thickness of ear auricle: 50 μL/mouse per day on both ears, once a day for 3 days, day of measurement not given; for Extent of hyperplasia: ear auricle thickness on day 3 minus day 1, 0.1 mm or greater = irritating; for General symptoms: observation during administration period", "description": "(Local Lymph Node Proliferation Assay using a Mouse)\n(1) Administration Solution\n(A) An administration solution A prepared by suspending the BIT/Zn salt obtained in Example 1 in a mixed solvent, which was composed of N,N-dimethylacetamide, acetone and ethanol and which contained the respective component at a ratio of 4:3:3 (volume ratio) (hereafter, frequently referred to as “DAE”), so as to achieve a 5% by weight solution.\n(B) An administration solution B prepared by dissolving BIT in DAE so as to achieve a 5% by weight solution.\n(2) Application of an Administration Solution\n12.5 μL of the administration solutions A and B were respectively applied inside and outside the ear auricle of a mouse using a micropipette. This process was carried out for both ears, once a day, and for 3 days. The applied dose was 50 μL/mouse for one day.\n(3) Measurement of Body Weight\nRegarding the mouse provided for the experiment, the body weight thereof was measured just before the application on day 0 of the experiment, on day 3 of the experiment, and just before the dissection thereof (on day 6).\n(4) Measurement of Ear Auricle Thickness\nRegarding the mouse provided for the experiment, the ear auricle thickness thereof was measured on day 1 and on day 3 of the experiment, using a digital thickness gage manufactured by Teclock Corporation.\nThe extent of hyperplasia was calculated by the formula: (ear auricle thickness on day 3 of the experiment)—(ear auricle thickness on day 1 of the experiment). When the extent of hyperplasia was 0.1 mm or greater, it was evaluated as “irritating”.\n(5) Observation of Symptoms\nDuring the administration period, the observations were made once just before the administration and once 3 hours after the administration. During other periods, the observations were made once a day. The presence and absence of erythema in the ear auricle was observed just before the administrations on day 1, day 2 and on day 3 of the experiment, and the observations made were evaluated in scores as 0 to 16 grades.\nMethod for Evaluating Mouse Eears\nGrades 0-9: Evaluated as possibly not irritating to humans.\nGrades 10-15: Evaluated as possibly slightly irritating to humans.\nGrades greater than grade 15: Evaluated as possibly irritating to humans."}, "[2]": {"test_system": "Aspergillus niger NBRC6342", "test": "Test for determining minimum concentration for inhibition of growth (agar plate dilution method), Aspergillus niger", "assay_type": "cell-based", "settings": "for MIC value (mM/L) Aspergillus niger NBRC6342: MIC on a molar basis, based on the molecular weights; for MIC value: concentration of active ingredient, potato dextrose agar, strain not given in Table 2", "description": "(§7) (Test for Determining Minimum Concentration for Inhibition of Growth)\n(§8) For the test samples, 3 types of samples were used; i.e., the BIT/Zn salt obtained in Example 1 (in the form of a powder containing 79.7% of active ingredients), a BIT material/SC formulation (i.e., Bestcide-NS manufactured by Nippon Soda Co., Ltd. containing 33% of active ingredients), and ZnO (zinc oxide) of 99.0% or greater (manufactured by Wako Pure Chemical Industries, Ltd.). Evaluations were made by conducting an agar plate dilution method using a potato dextrose agar medium. Two fungal strains; i.e., Aspergillus niger NBRC6342 and Cladosporium cladosporioides NBRC6348, were used as microorganisms for the test, and the BIT/Zn salt, BIT and ZnO were used at a concentration of 50 to 1,000 mg/L. The results are shown in Table 2 and Table 3. It should be noted that in Table 3, the results on the analysis of minimum inhibitory concentration (MIC) based on the molecular weights (i.e., MIC values on a molar basis) are shown."}, "[3]": {"test_system": "Cladosporium cladosporioides NBRC6348", "test": "Test for determining minimum concentration for inhibition of growth (agar plate dilution method), Cladosporium cladosporioides", "assay_type": "cell-based", "settings": "MIC on a molar basis, based on the molecular weights", "description": "as §7, §8"}, "Thermal stability test": {"test": "Thermal stability test", "assay_type": "physicochemical", "experimental": "A test was carried out on the thermal stability of the BIT/Zn salt obtained in Example 1 and of BIT. As a result, BIT broke down at 300° C. or less, whereas the BIT/Zn salt remained stable even at 400° C."}, "[4]": {"test_system": "Staphylococcus aureus NBRC 12732", "test": "Antibacterial test using a coated film (JIS Z 2801), Staphylococcus aureus", "assay_type": "cell-based", "experimental": "as §1, §2, §3, §4, §5\nas §6, with “The prepared test specimen was put in a petri dish and incubated for 24 hours in a thermo-hygrostat at a temperature of 35±1° C. and a relative humidity of 95%.” left out, “medium. […]” for “medium.”"}, "[5]": {"settings": "coated film, 24 hours at 35±1° C., 0.019% by weight BIT/Zn salt or 0.1% by weight BIT/SC in coating material"}, "[6]": {"settings": "larger values indicate stronger antibacterial activity"}, "[7]": {"settings": "logarithm of viable cell count after 24 hours"}}, "note": "Several values for one entry are separate records, joined by “and”; a condition that tells them apart may be missing. Identical values can stand only once.", "data": [{"compound": "O=c1[n-]sc2ccccc12.O=c1[n-]sc2ccccc12.[Zn+2]", "note": "[BIT/Zn salt, zinc salt of BIT]", "values": [{"measurement": "Number of viable cells, Escherichia coli", "setting": "[1]; [5]", "value": "<10 Number of cells per petri dish"}, {"measurement": "Antibacterial activity, Escherichia coli", "setting": "[1]; [6]", "value": 4.9}, {"measurement": "Logarithmic value, Escherichia coli", "setting": "[1]; [7]", "value": 1.0}, {"measurement": "Antibacterial activity compared with BIT", "setting": "[1]; statement covers both bacterial strains of Table 4", "value": "same level of antibacterial activity as that of BIT"}, {"measurement": "Thickness of ear auricle", "setting": "ear auricle of a mouse; 5% by weight in DAE", "value": 0.34, "unit": "mm"}, {"measurement": "Extent of hyperplasia", "setting": "ear auricle of a mouse; 5% by weight in DAE", "value": 0.04, "unit": "mm"}, {"measurement": "General symptoms", "setting": "ear auricle of a mouse; 5% by weight in DAE", "value": "attachment of white powder on the ear auricle was observed 3 hours after the administration"}, {"measurement": "MIC value (mM/L) Aspergillus niger NBRC6342", "setting": "[2]", "value": 2.0, "unit": "mM/L"}, {"measurement": "MIC value", "setting": "[2]", "value": 750, "unit": "mg/L"}, {"measurement": "Activity level", "setting": "[2]; statement covers both fungal strains", "value": "satisfactory to be put into practice"}, {"measurement": "MIC value (mM/L) Cladosporium cladosporioides NBRC6348", "setting": "[3]", "value": "<0.1", "unit": "mM/L"}, {"measurement": "Thermal stability (temperature of breakdown)", "setting": "Thermal stability test", "value": "> 400", "unit": "°C"}, {"measurement": "Number of viable cells, Staphylococcus aureus", "setting": "[4]; [5]", "value": "<10 Number of cells per petri dish"}, {"measurement": "Antibacterial activity, Staphylococcus aureus", "setting": "[4]; [6]", "value": 3.6}, {"measurement": "Logarithmic value, Staphylococcus aureus", "setting": "[4]; [7]", "value": 1.0}]}, {"compound": "[O]=[Zn]", "note": "[ZnO, zinc oxide]", "values": [{"measurement": "MIC value (mM/L) Aspergillus niger NBRC6342", "setting": "[2]", "value": ">12.3", "unit": "mM/L"}, {"measurement": "MIC value", "setting": "[2]", "value": ">1,000 mg/L"}, {"measurement": "MIC value (mM/L) Cladosporium cladosporioides NBRC6348", "setting": "[3]", "value": 6.10, "unit": "mM/L"}]}, {"compound": "O=c1[nH]sc2ccccc12", "note": "[BIT, 1,2-benzoisothiazolin-3-one]", "values": [{"measurement": "Thickness of ear auricle", "setting": "ear auricle of a mouse; 5% by weight in DAE", "value": 0.39, "unit": "mm"}, {"measurement": "Extent of hyperplasia", "setting": "ear auricle of a mouse; 5% by weight in DAE", "value": "0.1 mm and 0.10 mm"}, {"measurement": "General symptoms", "setting": "ear auricle of a mouse; 5% by weight in DAE", "value": "no abnormality was observed"}, {"measurement": "Grade for erythema", "setting": "ear auricle of a mouse; 5% by weight in DAE, score 0 to 16, 0-9 possibly not irritating, 10-15 slightly irritating, >15 irritating to humans", "value": 16}, {"measurement": "Evaluation of irritation", "setting": "ear auricle of a mouse; criterion: extent of hyperplasia 0.1 mm or greater", "value": "irritating"}, {"measurement": "MIC value (mM/L) Aspergillus niger NBRC6342", "setting": "[2]", "value": 1.3, "unit": "mM/L"}, {"measurement": "MIC value", "setting": "[2]", "value": 200, "unit": "mg/L"}, {"measurement": "MIC value (mM/L) Cladosporium cladosporioides NBRC6348", "setting": "[3]", "value": "<0.3", "unit": "mM/L"}, {"measurement": "Thermal stability (temperature of breakdown)", "setting": "Thermal stability test", "value": "≤ 300", "unit": "°C"}]}]}
